Values quoted from earlier work, collected in patent US20230149481A1, “COMBINATION THERAPY FOR INFLAMMATORY BOWEL DISEASE” (Servatus Ltd, priority 2020, published 2023).

System: DSS-induced colitis
Conditions: previous tests in the same DSS-induced colitis model, compared with the Group 5 treatment of Example 1

Which in-life disease score does the source give for `O=C(O)c1cc(/N=N/c2ccc(S(=O)(=O)Nc3ccccn3)cc2)ccc1O` [sulfasalazine] here?
Its in-life disease score is “None of these drugs statistically improved the in-life disease score to the extent observed”.

Which in-life disease score does the source give for `C[C@]12C=CC(=O)C=C1CC[C@@H]1[C@@H]2[C@@H](O)C[C@@]2(C)[C@H]1CC[C@]2(O)C(=O)CO` [prednisolone] here?
The in-life disease score was “None of these drugs statistically improved the in-life disease score to the extent observed”.
